Results on 21 compounds are retold here after patent publication US9365522B2, “Pyrazole amide derivative” (AMGEN INC., priority 2015, dated 2016).

The assay deals with T1, human RORγ-LBD (Homo sapiens, UniProt P51449).
T1 construct: made in house; host or cells: E. coli (BL-21)
T1 sequence (P51449 262-518): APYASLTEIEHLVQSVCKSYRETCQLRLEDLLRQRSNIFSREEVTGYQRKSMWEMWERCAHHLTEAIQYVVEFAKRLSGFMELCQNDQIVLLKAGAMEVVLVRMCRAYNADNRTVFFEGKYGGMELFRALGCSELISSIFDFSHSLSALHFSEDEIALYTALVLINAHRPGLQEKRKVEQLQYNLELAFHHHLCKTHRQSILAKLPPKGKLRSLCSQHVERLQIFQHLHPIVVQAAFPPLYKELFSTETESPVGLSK
Put plainly: ROR gamma coactivator peptide recruitment Alphascreen assay (RORγ-LBD binding to GRIP1 coactivator peptide). Type of assay: biochemical. Particulars: 5 nM human RORγ-LBD, 30 nM 7-β-hydroxycholesterol, 50 nM biotinylated GRIP1 coactivator peptide, overnight incubation at room temperature; read-out: result (pIC50, RORγ coactivator peptide recruitment Alphascreen assay) (converted). A digest of the protocol: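 His/Flag-tagged human RORγ-LBD (aa 262-518, E. coli-expressed, 5 nM) with agonist 7-β-hydroxycholesterol (30 nM) and biotinylated GRIP1 LXXLL peptide (50 nM) in HEPES pH 7.4 buffer, 2.5% DMSO. Compound 1-in-2 dilutions; Alphascreen bead signal read after overnight incubation at room temperature; pIC50 calculated.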
For the compound `C[C@]1(C(=O)O)CC[C@H](n2ncc(C(=O)N(CC(=O)c3c(Cl)cc(F)cc3Cl)CC3(F)CC3)c2C(F)(F)F)CC1` [Example 690, trans-4-(4-((2-(2,6-dichloro-4-fluorophenyl)-2-oxoethyl)((1-fluorocyclopropyl)methyl)carbamoyl)-5-(trifluoromethyl)-1H-pyrazol-1-yl)-1-methylcyclohexanecarboxylic acid], the IC50 was 6.76 nM. For `CC1(CN(CC(=O)c2c(Cl)cc(F)cc2Cl)C(=O)c2cnn([C@H]3CC[C@](C)(C(=O)O)CC3)c2C(F)(F)F)CCC1` [Example 691, trans-4-(4-((2-(2,6-dichloro-4-fluorophenyl)-2-oxoethyl)((1-methylcyclobutyl)methyl)carbamoyl)-5-(trifluoromethyl)-1H-pyrazol-1-yl)-1-methylcyclohexanecarboxylic acid], the IC50 was 1.66 nM. To `CC(C)(CN(CC(=O)c1c(Cl)cncc1Cl)C(=O)c1cnn([C@H]2CC[C@](C)(C(=O)O)CC2)c1C(F)(F)F)C(F)(F)F` [Example 692, trans-4-(4-((2-(3,5-dichloro-4-pyridinyl)-2-oxoethyl)(3,3,3-trifluoro-2,2-dimethylpropyl)carbamoyl)-5-(trifluoromethyl)-1H-pyrazol-1-yl)-1-methylcyclohexanecarboxylic acid] belongs 3.24 nM; to `Cc1cc(C)c(C(=O)CN(CC(C)(C)C)C(=O)c2cnn([C@H]3CC[C@](C)(C(=O)O)CC3)c2C(F)(F)F)c(Cl)n1` [Example 693, trans-4-(4-((2-(2-chloro-4,6-dimethyl-3-pyridinyl)-2-oxoethyl)(2,2-dimethylpropyl)carbamoyl)-5-(trifluoromethyl)-1H-pyrazol-1-yl)-1-methylcyclohexanecarboxylic acid], 43.7 nM; to `C[C@]1(C(=O)O)CC[C@H](n2ncc(C(=O)N(CC(=O)c3c(Cl)cc(F)cc3Cl)CC3CCC3)c2C(F)(F)F)CC1` [Example 694, trans-4-(4-((cyclobutylmethyl)(2-(2,6-dichloro-4-fluorophenyl)-2-oxoethyl)carbamoyl)-5-(trifluoromethyl)-1H-pyrazol-1-yl)-1-methylcyclohexanecarboxylic acid], 3.98 nM.

On to `C[C@]1(C(=O)O)CC[C@H](n2ncc(C(=O)N(CC(=O)c3c(Cl)cc(F)cc3Cl)CC3CC3)c2C(F)(F)F)CC1` [Example 695, trans-4-(4-((cyclopropylmethyl)(2-(2,6-dichloro-4-fluorophenyl)-2-oxoethyl)carbamoyl)-5-(trifluoromethyl)-1H-pyrazol-1-yl)-1-methylcyclohexanecarboxylic acid], for which the IC50 is 10 nM. For the compound `CC1(CN(CC(=O)c2c(Cl)cc(F)cc2Cl)C(=O)c2cnn([C@H]3CC[C@](C)(C(=O)O)CC3)c2C(F)(F)F)CCCCC1` [Example 696, trans-4-(4-((2-(2,6-dichloro-4-fluorophenyl)-2-oxoethyl)((1-methylcyclohexyl)methyl)carbamoyl)-5-(trifluoromethyl)-1H-pyrazol-1-yl)-1-methylcyclohexanecarboxylic acid], the IC50 was 1.62 nM. To `CC(C)(C)CN(CC(=O)c1c(Cl)cnc(Cl)c1Cl)C(=O)c1cnn([C@H]2CC[C@](C)(C(=O)O)CC2)c1C(F)(F)F` [Example 697, trans-4-(4-((2,2-dimethylpropyl)(2-oxo-2-(2,3,5-trichloro-4-pyridinyl)ethyl)carbamoyl)-5-(trifluoromethyl)-1H-pyrazol-1-yl)-1-methylcyclohexanecarboxylic acid] belongs 12.9 nM; to `C[C@]1(C(=O)O)CC[C@H](n2ncc(C(=O)N(CC(=O)c3c(Cl)cc(F)cc3Cl)CC3CCCC3)c2C(F)(F)F)CC1` [Example 698, trans-4-(4-((cyclopentylmethyl)(2-(2,6-dichloro-4-fluorophenyl)-2-oxoethyl)carbamoyl)-5-(trifluoromethyl)-1H-pyrazol-1-yl)-1-methylcyclohexanecarboxylic acid], 2.09 nM. To `CC(C)(C)[C@H]1C[C@@H](N(CC(=O)c2c(Cl)cncc2Cl)C(=O)c2cnn([C@H]3CC[C@](C)(C(=O)O)CC3)c2C(F)(F)F)C1` [Example 699, trans-4-(4-((2-(3,5-dichloro-4-pyridinyl)-2-oxoethyl)(cis-3-(2-methyl-2-propanyl)cyclobutyl)carbamoyl)-5-(trifluoromethyl)-1H-pyrazol-1-yl)-1-methylcyclohexanecarboxylic acid] belongs 39.8 nM; to `CC(C)CCN(CC(=O)c1c(Cl)cncc1Cl)C(=O)c1cnn([C@H]2CC[C@](C)(C(=O)O)CC2)c1C(F)(F)F` [Example 700, trans-4-(4-((2-(3,5-dichloro-4-pyridinyl)-2-oxoethyl)(3-methylbutyl)carbamoyl)-5-(trifluoromethyl)-1H-pyrazol-1-yl)-1-methylcyclohexanecarboxylic acid], 13.2 nM. To `Cc1cc(C)c(C(=O)CN(Cc2cc(F)cc(F)c2)C(=O)c2cnn([C@H]3CC[C@](C)(C(=O)O)CC3)c2C(F)(F)F)c(Cl)n1` [Example 702, trans-4-(4-((2-(2-chloro-4,6-dimethyl-3-pyridinyl)-2-oxoethyl)(3,5-difluorobenzyl)carbamoyl)-5-(trifluoromethyl)-1H-pyrazol-1-yl)-1-methylcyclohexanecarboxylic acid] belongs 7.94 nM; to `Cc1cc(Cl)c(C(=O)CN(CC2(F)CC2)C(=O)c2cnn([C@H]3CC[C@](C)(C(=O)O)CC3)c2C(F)(F)F)c(Cl)n1` [Example 703, trans-4-(4-((2-(2,4-dichloro-6-methyl-3-pyridinyl)-2-oxoethyl)((1-fluorocyclopropyl)methyl)carbamoyl)-5-(trifluoromethyl)-1H-pyrazol-1-yl)-1-methylcyclohexanecarboxylic acid], 70.8 nM. Turning to `Cc1cc(Cl)c(C(=O)CN(CCC(C)C)C(=O)c2cnn([C@H]3CC[C@](C)(C(=O)O)CC3)c2C(F)(F)F)c(Cl)c1` [Example 704, trans-4-(4-((2-(2,6-dichloro-4-methylphenyl)-2-oxoethyl)(3-methylbutyl)carbamoyl)-5-(trifluoromethyl)-1H-pyrazol-1-yl)-1-methylcyclohexanecarboxylic acid], the IC50 is 2.45 nM.

For `C[C@H]1CC[C@H](CN(CC(=O)c2c(Cl)cncc2Cl)C(=O)c2cnn([C@H]3CC[C@](C)(C(=O)O)CC3)c2C(F)(F)F)O1` [Example 705, trans-4-(4-((2-(3,5-dichloro-4-pyridinyl)-2-oxoethyl)(((2R,5S)-5-methyltetrahydro-2-furanyl)methyl)carbamoyl)-5-(trifluoromethyl)-1H-pyrazol-1-yl)-1-methylcyclohexanecarboxylic acid], the IC50 was 58.9 nM.

For `C[C@@H]1CC[C@@H](CN(CC(=O)c2c(Cl)cncc2Cl)C(=O)c2cnn([C@H]3CC[C@](C)(C(=O)O)CC3)c2C(F)(F)F)O1` [Example 706, trans-4-(4-((2-(3,5-dichloro-4-pyridinyl)-2-oxoethyl)(((2S,5R)-5-methyltetrahydro-2-furanyl)methyl)carbamoyl)-5-(trifluoromethyl)-1H-pyrazol-1-yl)-1-methylcyclohexanecarboxylic acid], the IC50 was 32.4 nM. To `Cc1cc(Cl)c(C(=O)CN(CC2CC2)C(=O)c2cnn([C@H]3CC[C@](C)(C(=O)O)CC3)c2C(F)(F)F)c(Cl)c1` [Example 707, trans-4-(4-((cyclopropylmethyl)(2-(2,6-dichloro-4-methylphenyl)-2-oxoethyl)carbamoyl)-5-(trifluoromethyl)-1H-pyrazol-1-yl)-1-methylcyclohexanecarboxylic acid] belongs 6.17 nM. Regarding `Cc1cc(Cl)c(C(=O)CN(CC2(C)CCCC2)C(=O)c2cnn([C@H]3CC[C@](C)(C(=O)O)CC3)c2C(F)(F)F)c(Cl)c1` [Example 709, trans-4-(4-((2-(2,6-dichloro-4-methylphenyl)-2-oxoethyl)((1-methylcyclopentyl)methyl)carbamoyl)-5-(trifluoromethyl)-1H-pyrazol-1-yl)-1-methylcyclohexanecarboxylic acid], the IC50 was 0.891 nM. Take `C[C@]1(C(=O)O)CC[C@H](n2ncc(C(=O)N(CC(=O)c3c(Cl)cncc3Cl)CC3CC3)c2C(F)(F)F)CC1` [Example 710, trans-4-(4-((cyclopropylmethyl) (2-(3,5-dichloro-4-pyridinyl)-2-oxoethyl)carbamoyl)-5-(trifluoromethyl)-1H-pyrazol-1-yl)-1-methylcyclohexanecarboxylic acid]: the IC50 is 27.5 nM. To `CC1(CN(CC(=O)c2c(Cl)cncc2Cl)C(=O)c2cnn([C@H]3CC[C@](C)(C(=O)O)CC3)c2C(F)(F)F)CCCC1` [Example 711, trans-4-(4-((2-(3,5-dichloro-4-pyridinyl)-2-oxoethyl)((1-methylcyclopentyl)methyl)carbamoyl)-5-(trifluoromethyl)-1H-pyrazol-1-yl)-1-methylcyclohexanecarboxylic acid] belongs 2.04 nM. To `C[C@]1(C(=O)O)CC[C@H](n2ncc(C(=O)N(CC(=O)c3c(Cl)cncc3Cl)CC3(F)CC4(CC4)C3)c2C(F)(F)F)CC1` [Example 712, trans-4-(4-((2-(3,5-dichloro-4-pyridinyl)-2-oxoethyl)((5-fluorospiro[2.3]hex-5-yl)methyl)carbamoyl)-5-(trifluoromethyl)-1H-pyrazol-1-yl)-1-methylcyclohexanecarboxylic acid] belongs 12.9 nM.
